Measured values taken from patent publication US9840478B2 (MERCK SHARP & DOHME CORP., priority 2013, dated 2017).
Read-outs that look alike come from different tables or passages of the source.

What was measured:
HIV-1 (H9IIIB strain) = test: Cell-based HIV infection assay using a reporter (Cell-Based), MT4-GFP cells; details: 50% normal human serum, mean of at least two independent experiments, read-out: Cell-based IP
Outline: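 IC50 from 4-parameter dose-response of % viral growth inhibition, using the 48 h/24 h infected-cell ratio scaled between DMSO and a protease/integrase/NNRTI triple-drug control. Assay used MT4 cells with HIV-LTR-GFP reporter, pre-infected 24 h with HIV-1 H9IIIB, in 50% normal human serum.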

wildtype HIV-1 protease = biological target: T1, wildtype HIV-1 protease (Human immunodeficiency virus type 1 group M subtype B, UniProt P04585); test: Assay for inhibition of microbial expressed HIV protease (Pepcleav); assay type: biochemical; details: wildtype HIV-1 protease expressed in E. coli; peptide substrate; mean of at least two independent experiments
T1 construct: preincubated with the HIV-1 protease (wild type) enzyme in assay buffer; made in house; host or cells: Escherichia coli
Procedure: Assay for Inhibition of Microbial Expressed HIV Protease (“Pepcleav”)
Studies of the inhibition of the wildtype HIV-1 protease (which was expressed in Escherichia coli) were carried out with a peptide substrate [Val-Ser-Gln-Asn-(βnaphtyl)Ala-Pro-Ile-Val]. The inhibitor is first preincubated with the HIV-1 protease (wild type) enzyme in assay buffer (50 mM sodium acetate, pH 5.5, 100 mM NaCl, and 0.1% BSA) for 30 minutes at room temperature. Substrate is added to 400 micromolar in a total volume of 20 microliters containing 20 picomolar HIV-1 protease (final) and the reaction is incubated for 1 hour at 30° C. The reaction is quenched with the addition of formic acid and indinavir to 0.012% and 150 nM final concentrations, respectively. The product formation is determined after separation of product and substrate on a Zorbax Eclipse XDB-C18 column connected to an API 4000 mass spectrometer (Applied Biosystems) with multiple reaction monitoring (transitions were 644.5/428.9 and 615.4/422.2 (M1/M3) for product and indinavir respectively). The extent of inhibition of the reaction is determined from the peak area of the products. Analysis of the products, independently synthesized, provided quantitation standards and confirmation of the product composition.

[1] = Human immunodeficiency virus 1, MT4-GFP cells infected with HIV-1 H9IIIB
[2] = MT4-GFP cells infected with HIV-1 H9IIIB

Molecule | IC50 (HIV-1 (H9IIIB strain); [1]) [nM] | IC50 (wildtype HIV-1 protease) [nM] | IC50 (HIV-1 (H9IIIB strain); [2]) [nM]
CS(=O)(=O)N1CCNC[C@@H]1CCc1c(F)cncc1NC(=O)[C@@H](N)C(c1ccc(F)cc1)c1ccc(F)cc1 [Example 1, 2S-Amino-3,3-di-(4-fluorophenyl)-N-(5-fluoro-4-(2-(1-methylsulfonylpiperazin-2-yl)ethyl)pyridin-3-yl)propanamide] | 67 | 9.7 | –
CS(=O)(=O)N1CCNC[C@H]1CCc1c(F)cncc1NC(=O)[C@@H](N)C(c1ccc(F)cc1)c1ccc(F)cc1 [Example 2, 2S-Amino-3,3-di-(4-fluorophenyl)-N-(5-fluoro-4-(2-(1-methylsulfonylpiperazin-2-yl)ethyl)pyridin-3-yl)propanamide] | – | 1400 | –
COC(=O)N[C@H](C(=O)Nc1cccc(F)c1CC[C@H]1CNCCN1S(=O)(=O)c1ccccc1)C(c1cccc(F)c1)c1cccc(F)c1 [Example 3, Methyl ((S)-1-((3-fluoro-2-(2-((S)-1-(phenylsulfonyl)piperazin-2-yl)ethyl)phenyl)amino)-3,3-bis(3-fluorophenyl)-1-oxopropan-2-yl)carbamate] | 4 | 0.48 | –
N[C@H](C(=O)Nc1cncc(F)c1CCC1CNCCN1S(=O)(=O)Cc1ccccc1)C(c1ccc(F)cc1)c1ccc(F)cc1 (stereo partly drawn) [Example 21, N-(4-{2-[1-(benzylsulfonyl)piperazin-2-yl]ethyl}-5-fluoropyridin-3-yl)-4-fluoro-β-(4-fluorophenyl)-L-phenylalaninamide] | – | 3.4 | –
N[C@H](C(=O)Nc1cncc(F)c1CC[C@H]1CNCCN1S(=O)(=O)c1ccccc1)C(c1ccc(F)cc1)c1ccc(F)cc1 [Example 22, (S)-2-amino-N-(5-fluoro-4-(2-((S)-1-(phenylsulfonyl)piperazin-2-yl)ethyl)pyridin-3-yl)-3,3-bis(4-fluorophenyl)propanamide] | 10 | 0.2 | –
N[C@H](C(=O)Nc1cncc(F)c1CC[C@@H]1CNCCN1S(=O)(=O)c1ccccc1)C(c1ccc(F)cc1)c1ccc(F)cc1 [Example 23, (S)-2-amino-N-(5-fluoro-4-(2-((R)-1-(phenylsulfonyl)piperazin-2-yl)ethyl)pyridin-3-yl)-3,3-bis(4-fluorophenyl) propanamide] | – | 10 | –
Nc1ccc(S(=O)(=O)N2CCNC[C@@H]2CCc2c(F)cncc2NC(=O)[C@@H](N)C(c2ccc(F)cc2)c2ccc(F)cc2)cc1 [Example 24, (S)-2-amino-N-(4-(2-((S)-1-((4-aminophenyl)sulfonyl)piperazin-2-yl)ethyl)-5-fluoropyridin-3-yl)-3,3-bis(4-fluorophenyl) propanamide] | – | 0.2 | –
Nc1ccc(S(=O)(=O)N2CCNC[C@H]2CCc2c(F)cncc2NC(=O)[C@@H](N)C(c2ccc(F)cc2)c2ccc(F)cc2)cc1 [Example 25, (S)-2-amino-N-(4-(2-((R)-1-((4-aminophenyl)sulfonyl)piperazin-2-yl)ethyl)-5-fluoropyridin-3-yl)-3,3-bis(4-fluorophenyl) propanamide] | – | 1.3 | –
CS(=O)(=O)N1CCNC[C@@H]1CCc1c(F)cncc1NC(=O)[C@@H](N)[C@@H](c1ccc(F)cc1)c1cc(F)cc(F)c1 [Example 26, (2S,3S)-2-amino-3-(3,5-difluorophenyl)-N-(5-fluoro-4-(2-((S)-1-(methylsulfonyl)piperazin-2-yl)ethyl)pyridin-3-yl)-3-(4-fluorophenyl)propanamide] | – | 3.5 | –
N[C@H](C(=O)Nc1cccc(F)c1CC[C@H]1CNCCN1S(=O)(=O)c1ccccc1)C(c1cccc(F)c1)c1cccc(F)c1 [Example 40, 3-fluoro-β-(3-fluorophenyl)-N-(3-fluoro-2-{2-[(2S)-1-(phenylsulfonyl)piperazin-2-yl]ethyl}phenyl)-L-phenylalaninamide] | 4.8 | 0.03 | –
O=C(CC1(c2ccccc2)CCCNC1)Nc1cncc(F)c1CC[C@H]1CNCCN1S(=O)(=O)C1CC1 (stereo partly drawn) [Example 63, N-(4-{2-[(2S)-1-(cyclopropylsulfonyl)piperazin-2-yl]ethyl}-5-fluoropyridin-3-yl)-2-(3-phenylpiperidin-3-yl)acetamide] | – | 1300 | –
CC(C)[C@H](c1ccc(F)cc1)[C@H](N)C(=O)Nc1cncc(F)c1CC[C@H]1CNCCN1S(=O)(=O)C1CC1 [Example 64, (βR)-N-(4-{2-[(2S)-1-(cyclopropylsulfonyl)piperazin-2-yl]ethyl}-5-fluoropyridin-3-yl)-4-fluoro-β-(1-methylethyl)-L-phenylalaninamide] | 95 | 70 | –
C[C@H]1CNC[C@H](CCc2c(F)cccc2NC(=O)[C@@H](N)[C@@H](c2ccc(F)cc2)c2cc(F)cc(F)c2)N1S(C)(=O)=O [Example 96, (βS)-β-(3,5-difluorophenyl)-4-fluoro-N-(3-fluoro-2-{2-[(2S,6S)-6-methyl-1-(methylsulfonyl)piperazin-2-yl]ethyl}phenyl)-L-phenylalaninamide] | – | 6.1 | 24
O=C(C[C@@H](c1ccc(F)cc1)c1cc(F)cc(F)c1)Nc1cncc(F)c1CC[C@H]1CNCCN1S(=O)(=O)C1CC1 [Example 303, (3S)-N-(4-{2-[(2S)-1-(cyclopropylsulfonyl)piperazin-2-yl]ethyl}-5-fluoropyridin-3-yl)-3-(3,5-difluorophenyl)-3-(4-fluorophenyl)propanamide] | 14 | 5 | –
O=C(C[C@@H](c1ccc(F)cc1)c1cc(F)cc(F)c1)Nc1cncc(F)c1CC[C@H]1CNCCN1C(=O)Nc1ccccc1 [Example 342, (2S)-2-[2-(3-{[(3S)-3-(3,5-difluorophenyl)-3-(4-fluorophenyl)propanoyl]amino}-5-fluoropyridin-4-yl)ethyl]-N-phenylpiperazine-1-carboxamide] | – | 250 | –
N[C@H](C(=O)Nc1cccc(F)c1CC[C@H]1CNCC2(CC2)N1C(=O)COc1ccccc1)C(c1ccc(F)cc1)c1ccc(F)cc1 [Example 368, (S)-2-amino-N-(3-fluoro-2-(2-((S)-4-(2-phenoxyacetyl)-4,7-diazaspiro[2.5]octan-5-yl)ethyl)phenyl)-3,3-bis(4-fluorophenyl)propanamide] | 1500 | – | –
COC(=O)N[C@H](C(=O)Nc1cccc(F)c1CC[C@H]1CNCC2(CC2)N1S(=O)(=O)c1ccccc1)[C@@H](c1ccc(Cl)cc1)C1CCOCC1 [Example 369, ((1R,2S)-1-(4-chlorophenyl)-3-((3-fluoro-2-(2-((S)-4-(phenylsulfonyl)-4,7-diazaspiro[2.5]octan-5-yl)ethyl)phenyl)amino)-3-oxo-1-(tetrahydro-2H-pyran-4-yl)propan-2-yl)carbamate] | 11 | – | –
C[C@@H]1C[C@H]([C@H](c2ccc(F)cc2)[C@H](N)C(=O)Nc2cccc(F)c2CC[C@H]2CNC[C@@H](C)N2S(=O)(=O)c2ccccc2)C[C@H](C)O1 [Example 370, (2S,3R)-2-amino-3-((2R,4r,6S)-2,6-dimethyltetrahydro-2H-pyran-4-yl)-N-(3-fluoro-2-(2-((2S,6R)-6-methyl-1-(phenylsulfonyl)piperazin-2-yl)ethyl)phenyl)-3-(4-fluorophenyl)propanamide] | 7.5 | – | –
C[C@@H]1C[C@H]([C@H](c2ccc(F)cc2)[C@H](N)C(=O)Nc2cccc(F)c2CC[C@H]2CNC[C@@H](C)N2S(=O)(=O)c2ccc(F)cc2)C[C@H](C)O1 [Example 371, (2S,3R)-2-amino-3-((2R,4r,6S)-2,6-dimethyltetrahydro-2H-pyran-4-yl)-N-(3-fluoro-2-(2-((2S,6S)-1-((4-fluorophenyl)sulfonyl)-6-methylpiperazin-2-yl)ethyl)phenyl)-3-(4-fluorophenyl)propanamide] | 9.6 | – | –
N[C@H](C(=O)Nc1cccc(F)c1CC[C@H]1CNCCN1S(=O)(=O)c1cc2ccccc2o1)[C@@H](c1ccc(F)cc1)c1cc(F)cc(F)c1 [Example 372, (2S,3S)-2-amino-N-(2-(2-((S)-1-(benzofuran-2-ylsulfonyl)piperazin-2-yl)ethyl)-3-fluorophenyl)-3-(3,5-difluorophenyl)-3-(4-fluorophenyl)propanamide] | 14 | – | –
Cc1ccc(S(=O)(=O)N2CCNC[C@@H]2CCc2c(F)cccc2NC(=O)[C@@H](N)[C@@H](c2ccc(F)cc2)c2cc(F)cc(F)c2)o1 [Example 373, (2S,3S)-2-amino-3-(3,5-difluorophenyl)-N-(3-fluoro-2-(2-((S)-1-((5-methylfuran-2-yl)sulfonyl)piperazin-2-yl)ethyl)phenyl)-3-(4-fluorophenyl)propanamide] | 4.2 | – | –
methyl ((S)-1-((2R,4r,6S)-4- (4-chlorophenyl)-2,6- dimethyltetrahydro-2H- pyran-4-yl)-2-((3-fluoro-2-(2- ((2S,6S)-6-methyl-1- (phenylsulfonyl)piperazin-2- yl)ethyl)phenyl)amino)-2- oxoethyl)carbamate [Example 299] | – | – | 16
